Data reported in ChEMBL document CHEMBL3132835, “Biological evaluation and molecular modelling of didanosine derivatives” (Medchemcomm, 2014).
pIC50: −log10 of the molar value.

Legend:
[1] = Cytotoxicity against human PBMC assessed as inhibition of cell growth by trypan blue staining; type: cell-based; conditions: read-out: CCID50
[2] = test system: Human immunodeficiency virus 1; experiment: Fold resistance, ratio of IC50 for NRTI-resistant HIV-1 D67N, T69D, K70R, A98G, V118I, M184V, T215F and K219Q mutant to wild type HIV-1 isolate infected in human PBMC cells; type: functional
[3] = Selectivity index, ratio of CCID50 for human PBMC to IC50 for HIV-1 HTLV-3B; type: functional
[4] = test system: Human immunodeficiency virus 1; experiment: Antiviral activity against wild type HIV-1 isolate infected in human PBMC cells assessed as inhibition of viral production by p24 antigen production/ELISA; type: functional, organism-based; conditions: Human immunodeficiency virus 1, PBMC
[5] = test system: Human immunodeficiency virus 1; experiment: Antiviral activity against HIV-1 HTLV-3B infected in human PBMC cells assessed as inhibition of viral production by p24 antigen production/ELISA; type: functional, organism-based; conditions: Human immunodeficiency virus 1, HTLV-3B
[6] = Half life in rat; type: ADME, organism-based; conditions: in vivo

| Compound | CC50 [1] [µM] | Ratio IC50 [2] | Selectivity Index [3] | pIC50 [4] | pIC50 [5] | half-life [6] [h] |
| --- | --- | --- | --- | --- | --- | --- |
| CCCCCOC(=O)OC[C@@H]1CC[C@H](n2cnc3c(=O)nc[nH]c32)O1 | 7000 | 600 | 200 | 5.19 | 4.52 |  |
| CCOC(=O)OC[C@@H]1CC[C@H](n2cnc3c(=O)nc[nH]c32)O1 | 570 |  | 1.2 |  | 3.31 |  |
| CCCCOC(=O)OC[C@@H]1CC[C@H](n2cnc3c(=O)nc[nH]c32)O1 | 290 |  | 2.9 |  | 4.00 |  |
| CCCCCCOC(=O)OC[C@@H]1CC[C@H](n2cnc3c(=O)nc[nH]c32)O1 | 220 |  | 5.2 |  | 4.40 |  |
| CCCCCCCOC(=O)OC[C@@H]1CC[C@H](n2cnc3c(=O)nc[nH]c32)O1 | 520 |  | 1.7 |  | 3.52 |  |
| O=c1[nH]cnc2c1ncn2[C@H]1CC[C@@H](CO)O1 [DIDANOSINE] | 100 | 900 | 2.3 | 5.47 | 4.40 | 1 |
| Cc1cn([C@H]2C[C@H](N=[N+]=[N-])[C@@H](CO)O2)c(=O)[nH]c1=O [ZIDOVUDINE] |  | 4000 |  | 6.67 |  |  |
